Starred links: 1 amine or outer side, 2 acyl side, 3 side chain; linkers in the order of their positions; H or OH if unused. Positions of bridges follow the written chain, without caps; N, C: chain ends. Non-standard residues stand in square brackets, D forms with d. Residues, ends and D or L forms follow the SMILES beside them. *: point of attachment. Bip(4'-NHCO-C6H4-3-CH2COOH) = N[C@@H](Cc1ccc(-c2ccc(NC(=O)c3cccc(CC(=O)O)c3)cc2)cc1)C(=O)O; dArg(Nω-CH2C6H4-3-CH2Gua) = N=C(N)NCc1cccc(CNC(=N)NCCC[C@@H](N)C(=O)O)c1; Bip(4'-NH) = O=C([C@H](Cc1ccc(-c2ccc(N[*:3])cc2)cc1)N[*:1])[*:2]; Bip(4'-CONHMe) = CNC(=O)c1ccc(-c2ccc(C[C@H](N)C(=O)O)cc2)cc1; Indazole3carbonyl(1-CH2COOH) = O=C(O)Cn1nc(C(=O)*)c2ccccc21; Bip(4'-COOH) = N[C@@H](Cc1ccc(-c2ccc(C(=O)O)cc2)cc1)C(=O)O; Bip(4'-NHAc) = CC(=O)Nc1ccc(-c2ccc(C[C@H](N)C(=O)O)cc2)cc1; Phe(3-CH2NH2) = O=C([C@H](Cc1cccc(CN[*:3])c1)N[*:1])[*:2]; X26 = N=C(NCCC[C@@H](N[*:1])C(=O)[*:2])NCc1ccc(O)cc1; Ala(imidazol-2-yl) = N[C@@H](Cc1ncc[nH]1)C(=O)O; dArg(ω-Bn) = N=C(NCCC[C@@H](N)C(=O)O)NCc1ccccc1; Ala(morpholin-4-yl) = N[C@@H](CN1CCOCC1)C(=O)O; Benzoyl(4-OCH2COOH) = O=C(O)COc1ccc(C(=O)*)cc1; Bip = N[C@@H](Cc1ccc(-c2ccccc2)cc1)C(=O)O; Phe(2-F) = N[C@@H](Cc1ccccc1F)C(=O)O; 2Pal = N[C@@H](Cc1ccccn1)C(=O)O; Tic = O=C(O)[C@@H]1Cc2ccccc2CN1; Cha = N[C@@H](CC1CCCCC1)C(=O)O; X20 = O=C(c1csc(-c2ccncc2)n1)*; Tle = CC(C)(C)[C@H](N)C(=O)O; Aze = O=C(O)[C@@H]1CCN1; Sar = CNCC(=O)O
Target: TNFα (Homo sapiens, UniProt P01375)
Assay: TNF-Induced HEK-Blue Assay
Format: cell-based
Conditions: not given

TNFα, sequence (P01375 77-233 limits assumed): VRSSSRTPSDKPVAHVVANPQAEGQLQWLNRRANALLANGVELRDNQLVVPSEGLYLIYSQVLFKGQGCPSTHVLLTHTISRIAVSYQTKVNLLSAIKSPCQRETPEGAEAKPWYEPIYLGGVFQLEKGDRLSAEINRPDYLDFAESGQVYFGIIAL

Compound | IC50 [nM]
CC(C)C[C@@H]1NC(=O)[C@H](CCCNC(=N)N)NC(=O)[C@H](C(C)C)NC(=O)[C@@H]2CCCN2C(=O)[C@H](C(C)C)NC(=O)[C@@H](CCCNC(=N)NCc2ccc(O)cc2)NC(=O)[C@H](CC(=O)O)NC(=O)[C@@H]2CCCN2C(=O)CN(C)C(=O)[C@H](Cc2ccc(-c3ccc(NC(=O)c4nn(CC(=O)O)c5ccccc45)cc3)cc2)NC(=O)[C@H](Cc2ccc(-c3ccccc3)cc2)NC(=O)[C@H](CN2CCOCC2)NC(=O)CSC[C@@H](C(=O)NCC(N)=O)NC1=O [Example 508] ({CH2CO}-[Ala(morpholin-4-yl)][Bip][Bip(4'-NH)](Indazole3carbonyl(1-CH2COOH))[Sar]PD[X26]VPVRLCG-NH2; thioether N-13) | < 50
CC(C)C[C@@H]1NC(=O)[C@H](CCCNC(=N)N)NC(=O)[C@H](C(C)C)NC(=O)[C@@H]2CCCN2C(=O)[C@H](C(C)C)NC(=O)[C@@H](CCCNC(=N)NCc2ccccc2)NC(=O)[C@H](CC(=O)O)NC(=O)[C@@H]2CCCN2C(=O)CN(C)C(=O)[C@H](Cc2ccc(-c3ccc(NC(=O)c4nn(CC(=O)O)c5ccccc45)cc3)cc2)NC(=O)[C@H](Cc2ccc(-c3ccccc3)cc2)NC(=O)[C@H](CN2CCOCC2)NC(=O)CSC[C@@H](C(=O)NCC(N)=O)NC1=O [Example 467] ({CH2CO}-[Ala(morpholin-4-yl)][Bip][Bip(4'-NH)](Indazole3carbonyl(1-CH2COOH))[Sar]PD[dArg(ω-Bn)]VPVRLCG-NH2; thioether N-13) | < 50

Same assay, conditions: HEK-Blue-CD40L cells, NF-kB-driven secreted alkaline phosphatase reporter; TNFα 0.5 ng/ml; 18 h; read-out: TNF induced HEK-Blue assay IC50 value

Compound | IC50 [nM]
CC(C)C[C@@H]1NC(=O)[C@H](Cc2ccc(O)cc2)NC(=O)[C@H](C(C)C)NC(=O)[C@@H]2CCCN2C(=O)[C@H](C(C)C)NC(=O)[C@@H](CCCNC(=N)N)NC(=O)[C@H](CC(=O)O)NC(=O)[C@H](Cc2ccc(O)cc2)NC(=O)CN(C)C(=O)[C@H](Cc2ccc(-c3ccccc3)cc2)NC(=O)[C@H](Cc2ccc(-c3ccccc3)cc2)NC(=O)[C@H](Cc2ccccc2)NC(=O)CSC[C@@H](C(=O)NCC(N)=O)NC1=O [Example 62] ({CH2CO}-F[Bip][Bip][Sar]YD[dR]VPVYLCG-NH2; thioether N-13) | 50 to 200
CC(C)C[C@@H]1NC(=O)[C@H](CCCNC(=N)N)NC(=O)[C@H](C(C)C)NC(=O)[C@@H]2CCCN2C(=O)[C@H](Cc2ccccc2F)NC(=O)[C@H](CCCNC(=N)N)NC(=O)[C@H](CC(=O)O)NC(=O)[C@@H]2CCCN2C(=O)CN(C)C(=O)[C@H](Cc2ccc(-c3ccccc3)cc2)NC(=O)[C@H](Cc2ccc(-c3ccccc3)cc2)NC(=O)[C@H](CN2CCOCC2)NC(=O)CSC[C@@H](C(=O)NCC(N)=O)NC1=O [Example 53] ({CH2CO}-[Ala(morpholin-4-yl)][Bip][Bip][Sar]PDR[Phe(2-F)]PVRLCG-NH2; thioether N-13) | 200 to 2000
CC(C)C[C@@H]1NC(=O)[C@H](Cc2ccc(O)cc2)NC(=O)[C@H](C(C)C)NC(=O)[C@@H]2CCCN2C(=O)[C@H](C(C)C)NC(=O)[C@@H](CCCNC(=N)N)NC(=O)[C@H](CC(=O)O)NC(=O)[C@H](Cc2ccccn2)NC(=O)CN(C)C(=O)[C@H](Cc2ccc(-c3ccccc3)cc2)NC(=O)[C@H](Cc2ccc(-c3ccccc3)cc2)NC(=O)[C@H](CN2CCOCC2)NC(=O)CSC[C@@H](C(=O)NCC(N)=O)NC1=O [Example 144] ({CH2CO}-[Ala(morpholin-4-yl)][Bip][Bip][Sar][2Pal]D[dR]VPVYLCG-NH2; thioether N-13) | < 50
CC(C)C[C@@H]1NC(=O)[C@H](Cc2ccc(O)cc2)NC(=O)[C@H](C(C)C)NC(=O)[C@@H]2CCN2C(=O)[C@H](C(C)C)NC(=O)[C@@H](CCCNC(=N)N)NC(=O)[C@H](CC(=O)O)NC(=O)[C@@H]2CCCN2C(=O)CN(C)C(=O)[C@H](Cc2ccc(-c3ccccc3)cc2)NC(=O)[C@H](Cc2ccc(-c3ccccc3)cc2)NC(=O)[C@H](CN2CCOCC2)NC(=O)CSC[C@@H](C(=O)NCC(N)=O)NC1=O [Example 82] ({CH2CO}-[Ala(morpholin-4-yl)][Bip][Bip][Sar]PD[dR]V[Aze]VYLCG-NH2; thioether N-13) | 200 to 2000
CC(C)C[C@@H]1NC(=O)[C@H](Cc2ccc(O)cc2)NC(=O)[C@H](C(C)C)NC(=O)[C@H](Cc2ccccn2)NC(=O)[C@H](C(C)C)NC(=O)[C@H](CCCNC(=N)N)NC(=O)[C@H](CC(=O)O)NC(=O)[C@H](Cc2ccc(O)cc2)NC(=O)CN(C)C(=O)[C@H](Cc2ccc(-c3ccccc3)cc2)NC(=O)[C@H](Cc2ccc(-c3ccccc3)cc2)NC(=O)[C@H](CN2CCOCC2)NC(=O)CSC[C@@H](C(=O)NCC(N)=O)NC1=O [Example 109] ({CH2CO}-[Ala(morpholin-4-yl)][Bip][Bip][Sar]YDRV[2Pal]VYLCG-NH2; thioether N-13) | 200 to 2000

Results, then the compound that gave them:

IC50 [nM] | Compound
< 50 | CC(C)C[C@@H]1NC(=O)[C@H](Cc2ncc[nH]2)NC(=O)[C@H](C(C)C)NC(=O)[C@@H]2CCCN2C(=O)[C@H](C(C)C)NC(=O)[C@@H](CCCNC(=N)NCc2cccc(CNC(=N)N)c2)NC(=O)[C@H](CC(=O)O)NC(=O)[C@H](Cc2ccccn2)NC(=O)CN(C)C(=O)[C@H](Cc2ccc(-c3ccc(NC(=O)c4cccc(CC(=O)O)c4)cc3)cc2)NC(=O)[C@H](Cc2ccc(-c3ccc(C(=O)O)cc3)cc2)NC(=O)[C@H](CC2CCCCC2)NC(=O)CSC[C@@H](C(=O)NCC(N)=O)NC1=O [Example 558] ({CH2CO}-[Cha][Bip(4'-COOH)][Bip(4'-NHCO-C6H4-3-CH2COOH)][Sar][2Pal]D[dArg(Nω-CH2C6H4-3-CH2Gua)]VPV[Ala(imidazol-2-yl)]LCG-NH2; thioether N-13)
< 50 | CC(C)C[C@@H]1NC(=O)[C@H](Cc2cnc[nH]2)NC(=O)[C@H](C(C)C)NC(=O)[C@@H]2CCCN2C(=O)[C@H](C(C)C)NC(=O)[C@@H](CCCNC(=N)N)NC(=O)[C@H](CC(=O)O)NC(=O)[C@H](Cc2ccccc2)NC(=O)CN(C)C(=O)[C@H](Cc2ccc(-c3ccc(NC(=O)c4ccc(OCC(=O)O)cc4)cc3)cc2)NC(=O)[C@H](Cc2ccc(-c3ccccc3)cc2)NC(=O)[C@H](CN2CCOCC2)NC(=O)CSC[C@@H](C(=O)NCC(N)=O)NC1=O [Example 492] ({CH2CO}-[Ala(morpholin-4-yl)][Bip][Bip(4'-NH)](Benzoyl(4-OCH2COOH))[Sar]FD[dR]VPVHLCG-NH2; thioether N-13)
50 to 200 | CC[C@H](C)[C@@H]1NC(=O)[C@@H](CCCNC(=N)N)NC(=O)[C@H](CC(=O)O)NC(=O)[C@@H]2CCCN2C(=O)CN(C)C(=O)[C@H](Cc2ccc(-c3ccc(NC(C)=O)cc3)cc2)NC(=O)[C@H](Cc2ccc(-c3ccccc3)cc2)NC(=O)[C@H](C(C)(C)C)NC(=O)CSC[C@@H](C(=O)NCC(N)=O)NC(=O)[C@H](CC(C)C)NC(=O)[C@H](Cc2ccc(O)cc2)NC(=O)[C@H](C(C)C)NC(=O)[C@@H]2CCCN2C1=O [Example 267] ({CH2CO}-[Tle][Bip][Bip(4'-NHAc)][Sar]PD[dR]IPVYLCG-NH2; thioether N-13)
< 50 | CC(=O)Nc1ccc(-c2ccc(C[C@@H]3NC(=O)[C@H](Cc4ccc(-c5ccc(C(=O)O)cc5)cc4)NC(=O)[C@H](CN4CCOCC4)NC(=O)CSC[C@@H](C(=O)NCC(N)=O)NC(=O)[C@H](CC(C)C)NC(=O)[C@H](Cc4cccc(CN)c4)NC(=O)[C@H](C(C)C)NC(=O)[C@@H]4CCN4C(=O)[C@H](C(C)C)NC(=O)[C@@H](CCCNC(=N)N)NC(=O)[C@H](CC(=O)O)NC(=O)[C@H](Cc4ccccn4)NC(=O)CN(C)C3=O)cc2)cc1 [Example 181] ({CH2CO}-[Ala(morpholin-4-yl)][Bip(4'-COOH)][Bip(4'-NHAc)][Sar][2Pal]D[dR]V[Aze]V[Phe(3-CH2NH2)]LCG-NH2; thioether N-13)
50 to 200 | CC(C)C[C@@H]1NC(=O)[C@H](Cc2ccc(O)cc2)NC(=O)[C@H](CC(C)C)NC(=O)[C@@H]2CCCN2C(=O)[C@H](C(C)C)NC(=O)[C@@H](CCCNC(=N)N)NC(=O)[C@H](CC(=O)O)NC(=O)[C@H](Cc2ccc(O)cc2)NC(=O)CN(C)C(=O)[C@H](Cc2ccc(-c3ccccc3)cc2)NC(=O)[C@H](Cc2ccc(-c3ccccc3)cc2)NC(=O)[C@H](CN2CCOCC2)NC(=O)CSC[C@@H](C(=O)NCC(N)=O)NC1=O [Example 149] ({CH2CO}-[Ala(morpholin-4-yl)][Bip][Bip][Sar]YD[dR]VPLYLCG-NH2; thioether N-13)
< 50 | CC(=O)Nc1ccc(-c2ccc(C[C@@H]3NC(=O)[C@H](Cc4ccc(-c5ccc(C(=O)O)cc5)cc4)NC(=O)[C@H](CN4CCOCC4)NC(=O)CSC[C@@H](C(=O)NCC(N)=O)NC(=O)[C@H](CC(C)C)NC(=O)[C@H](CCCNC(=N)N)NC(=O)[C@H](C(C)C)NC(=O)[C@@H]4CCCN4C(=O)[C@H](C(C)C)NC(=O)[C@@H](CCCNC(=N)N)NC(=O)[C@H](CC(=O)O)NC(=O)[C@@H]4CCCN4C(=O)CN(C)C3=O)cc2)cc1 [Example 165] ({CH2CO}-[Ala(morpholin-4-yl)][Bip(4'-COOH)][Bip(4'-NHAc)][Sar]PD[dR]VPVRLCG-NH2; thioether N-13)
50 to 200 | CC[C@H](C)[C@@H]1NC(=O)[C@@H](CCCNC(=N)N)NC(=O)[C@H](CC(=O)O)NC(=O)[C@H](Cc2cnc[nH]2)NC(=O)CN(C)C(=O)[C@H](Cc2ccc(-c3ccc(NC(=O)c4csc(-c5ccncc5)n4)cc3)cc2)NC(=O)[C@H](Cc2ccc(-c3ccc(C(=O)O)cc3)cc2)NC(=O)[C@H](CC2CCCCC2)NC(=O)CSC[C@@H](C(=O)NCC(N)=O)NC(=O)[C@H](CC(C)C)NC(=O)[C@H](Cc2ncc[nH]2)NC(=O)[C@H](C(C)C)NC(=O)[C@@H]2Cc3ccccc3CN2C1=O [Example 411] ({CH2CO}-[Cha][Bip(4'-COOH)][Bip(4'-NH)](X20)[Sar]HD[dR]I[Tic]V[Ala(imidazol-2-yl)]LCG-NH2; thioether N-13)
< 50 | CC[C@H](C)[C@@H]1NC(=O)[C@@H](CCCNC(=N)N)NC(=O)[C@H](CC(=O)O)NC(=O)[C@H](Cc2cnc[nH]2)NC(=O)CN(C)C(=O)[C@H](Cc2ccc(-c3ccc(NC(=O)c4ccc(OCC(=O)O)cc4)cc3)cc2)NC(=O)[C@H](Cc2ccc(-c3ccc(C(=O)NC)cc3)cc2)NC(=O)[C@H](CC2CCCCC2)NC(=O)CSC[C@@H](C(=O)NCC(N)=O)NC(=O)[C@H](CC(C)C)NC(=O)[C@H](Cc2cnc[nH]2)NC(=O)[C@H](C(C)C)NC(=O)[C@@H]2CCCN2C1=O [Example 395] ({CH2CO}-[Cha][Bip(4'-CONHMe)][Bip(4'-NH)](Benzoyl(4-OCH2COOH))[Sar]HD[dR]IPVHLCG-NH2; thioether N-13)
